Biological target: human Pin1 (Homo sapiens, UniProt Q13526)
Experiment: IC50 measurement of inhibitors for Pin1 (chymotrypsin-coupled peptidyl-prolyl isomerase assay, SucAEPF-pNA)
Type: biochemical
Conditions: cis substrate SucAEPF-pNA 43.2 μM, 31 mM HEPES pH 7.8, 4° C., absorbance at 390 nm; read-out: IC50 value for the inhibition of human Pin1 peptidyl-prolyl isomerase activity
Description: Measurement of human Pin1 peptidyl-prolyl isomerase activity. The concentration of the cis conformation of substrate, SucAEPF-pNA, was determined by the UV absorbance of pNA (ε=12250 at […]) after cleavage by α-chymotrypsin. The cis component of the substrate was approximately 51%. The assay buffer (1050 μL of 35 mM HEPES, pH 7.8 at 0° C.; final concentration 31 mM HEPES) and Pin1 (10 μL of a 8.0 μM stock solution, concentration measured by Bradford assay, final concentration 67 nM) were pre-equilibrated in the spectrometer until the temperature reached 4.0° C. Immediately before the assay was started, 120 μL of ice-cooled α-chymotrypsin solution (60 mg/mL in 0.001 M HCl; final concentration 6 mg/mL) was added. Additional substrate solvent (0.47 M LiCl/TFE) was added as needed to bring the total volume of substrate and cosolvent to 10 μL. The peptide substrate, dissolved in dry 0.47 M LiCl/TFE, was added to the cuvette via syringe and the solution was mixed vigorously by inversion 3 times. The final volume in a semi micro 1 cm path length polystyrene cell was 1.2 mL.
IC50 measurement of inhibitors for Pin1. Human Pin1 was assayed at a cis substrate concentration of 43.2 μM. […] After a mixing delay of 6-8 sec, the progress of the reaction was monitored by absorbance at 390 nm for 90 sec.

human Pin1, sequence (Q13526 whole entry): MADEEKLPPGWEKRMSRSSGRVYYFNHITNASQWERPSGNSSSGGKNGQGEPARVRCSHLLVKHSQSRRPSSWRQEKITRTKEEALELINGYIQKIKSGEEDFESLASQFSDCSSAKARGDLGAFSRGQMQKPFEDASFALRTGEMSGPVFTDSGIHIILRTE

Q: Which IC50 does the source give for `CC(=O)N[C@@H](Cc1ccccc1)C(=O)N[C@@H](Cc1ccc(O)cc1)C(=O)N[C@H](/C=C1/CCC[C@H]1C(=O)N[C@@H](CCCNC(=N)N)C(N)=O)COP(=O)(O)O` [Ac-Phe-Tyr-phosphoSer-Ψ[(Z)CH═C]-Pro-Arg-NH2] here?
A: Its IC50 is 970 nM.

Source: patent US20080261923A1, “Alkene Mimics” (priority 2004, published 2008)
